Source: paper PMC4804213, “Human EAG channels are directly modulated by PIP2 as revealed by electrophysiological and optical interference investigations” (Scientific Reports, 2016)
Read-outs that look alike come from different tables or passages of the source.

Tests used:
[1] = biological target: T1, hEAG1 (Kv10.1, KCNH1) (Homo sapiens, UniProt O95259); assay: bio-layer interferometry, biotinylated FLAG-tagged channel on streptavidin sensor, Hill fit; type: binding; conditions: 200-s cumulative application epochs; PBS, 0.02% Tween-20, 0.1% BSA, pH 7.4; room temperature; brain-derived lipid of mixed acyl chains
T1 construct: full length; untagged in pcDNA3.1 transiently in CHO cells (patch clamp); tetramer
T1 sequence (O95259 1-962 isoform O95259-2): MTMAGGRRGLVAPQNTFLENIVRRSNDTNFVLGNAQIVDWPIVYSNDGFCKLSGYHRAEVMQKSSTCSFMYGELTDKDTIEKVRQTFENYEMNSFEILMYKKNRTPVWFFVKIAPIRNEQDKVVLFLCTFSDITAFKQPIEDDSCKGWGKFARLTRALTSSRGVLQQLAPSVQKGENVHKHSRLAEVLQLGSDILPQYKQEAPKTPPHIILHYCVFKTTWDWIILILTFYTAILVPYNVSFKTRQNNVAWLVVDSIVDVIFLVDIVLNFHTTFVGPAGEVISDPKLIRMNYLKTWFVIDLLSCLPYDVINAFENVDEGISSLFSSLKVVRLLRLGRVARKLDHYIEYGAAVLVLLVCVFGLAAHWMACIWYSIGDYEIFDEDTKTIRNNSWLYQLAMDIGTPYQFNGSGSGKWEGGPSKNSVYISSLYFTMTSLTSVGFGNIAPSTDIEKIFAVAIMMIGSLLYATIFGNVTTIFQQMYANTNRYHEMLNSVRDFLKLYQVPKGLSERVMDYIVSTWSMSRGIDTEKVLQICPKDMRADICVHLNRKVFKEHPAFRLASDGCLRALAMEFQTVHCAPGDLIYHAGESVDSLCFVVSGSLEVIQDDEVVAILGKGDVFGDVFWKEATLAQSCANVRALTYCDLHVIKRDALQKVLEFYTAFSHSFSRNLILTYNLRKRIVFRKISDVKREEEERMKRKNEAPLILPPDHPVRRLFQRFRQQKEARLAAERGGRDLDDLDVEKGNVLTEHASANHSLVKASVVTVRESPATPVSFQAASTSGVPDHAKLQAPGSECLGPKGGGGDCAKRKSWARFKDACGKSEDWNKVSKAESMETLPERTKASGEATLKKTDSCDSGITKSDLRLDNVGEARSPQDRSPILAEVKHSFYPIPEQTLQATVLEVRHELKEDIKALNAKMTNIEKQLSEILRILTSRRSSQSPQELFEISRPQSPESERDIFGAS

[2] = biological target: T1, hEAG1 (Kv10.1, KCNH1); assay: patch clamp, peak current inhibition at […] mV, Hill fit; type: cell-based

Kd [1]	IC50 ([2]; 200-s application to the intracellular side, peak current at 40 mV, room temperature, brain-derived lipid of mixed acyl chains)	IC50 [2]	Molecule
350 ± 40 nM	0.35 ± 0.01 µM		PIP2
		18.6 ± 0.6 µM	CCCCCCCC(=O)OC[C@H](COP(=O)(O)O[C@@H]1[C@H](O)[C@H](O)[C@@H](OP(=O)(O)O)[C@H](OP(=O)(O)O)[C@H]1O)OC(=O)CCCCCCC [diC8-PIP2]
